Measurements from ChEMBL document CHEMBL5625233, “Exploring positions 6 and 7 of a quinazoline-based scaffold leads to changes in selectivity and potency towards RIPK2/3 kinases” (Eur J Med Chem, 2023).
Calls of active or inactive are those of the source. No cut-off for these calls is given here.

Columns and labels:
[1] = target: T1, Receptor-interacting serine/threonine-protein kinase 3 (Homo sapiens, UniProt Q9Y572); experiment: Inhibition of N-terminal polyHis-tagged human RIPK3 (1 to 307 residues) expressed in Sf9 cells using MBP as substrate upto 10 uM preincubated for 15 mins followed by ATP addition measured after 90 mins by ADP-Glo assay; settings: time 105.0 min
Target sequence in this assay (Q9Y572 whole entry, looked up, the tested form may be a part): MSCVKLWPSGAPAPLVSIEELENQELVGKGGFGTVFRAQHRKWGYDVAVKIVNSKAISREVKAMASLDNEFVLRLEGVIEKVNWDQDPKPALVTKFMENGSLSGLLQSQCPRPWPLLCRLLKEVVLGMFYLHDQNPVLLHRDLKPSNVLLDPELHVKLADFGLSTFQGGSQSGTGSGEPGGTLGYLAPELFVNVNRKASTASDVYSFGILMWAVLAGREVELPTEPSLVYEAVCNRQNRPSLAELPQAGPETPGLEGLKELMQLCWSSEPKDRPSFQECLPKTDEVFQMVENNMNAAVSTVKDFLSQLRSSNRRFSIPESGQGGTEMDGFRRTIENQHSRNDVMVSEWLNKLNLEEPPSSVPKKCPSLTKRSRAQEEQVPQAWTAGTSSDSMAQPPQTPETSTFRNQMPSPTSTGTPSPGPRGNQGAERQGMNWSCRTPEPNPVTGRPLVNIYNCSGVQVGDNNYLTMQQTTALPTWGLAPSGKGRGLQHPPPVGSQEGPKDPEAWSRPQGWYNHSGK

[2] = target: T2, Receptor-interacting serine/threonine-protein kinase 2 (Homo sapiens, UniProt O43353); experiment: Inhibition of N-terminal polyHis-tagged human RIPK2 (8 to 310 residues) expressed in Sf9 cells using MBP as substrate preincubated for 15 mins followed by ATP addition measured after 90 mins by ADP-Glo assay
T2 sequence (O43353 whole entry, the tested form may be a part): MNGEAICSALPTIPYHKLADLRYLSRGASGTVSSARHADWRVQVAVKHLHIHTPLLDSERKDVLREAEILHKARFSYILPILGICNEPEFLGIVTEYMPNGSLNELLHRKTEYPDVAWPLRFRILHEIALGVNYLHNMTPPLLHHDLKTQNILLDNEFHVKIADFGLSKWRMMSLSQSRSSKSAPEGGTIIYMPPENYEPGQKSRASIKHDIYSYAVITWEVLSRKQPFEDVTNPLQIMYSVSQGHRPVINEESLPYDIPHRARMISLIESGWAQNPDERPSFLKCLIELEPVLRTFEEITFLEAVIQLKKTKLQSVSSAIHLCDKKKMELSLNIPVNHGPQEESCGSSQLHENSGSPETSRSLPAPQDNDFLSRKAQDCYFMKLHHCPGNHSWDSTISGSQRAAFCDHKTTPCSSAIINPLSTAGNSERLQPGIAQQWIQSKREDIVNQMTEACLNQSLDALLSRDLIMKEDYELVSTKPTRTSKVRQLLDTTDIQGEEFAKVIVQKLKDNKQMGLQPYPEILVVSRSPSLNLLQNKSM

[3] = target: T2, Receptor-interacting serine/threonine-protein kinase 2; experiment: Inhibition of RIPK2-mediated NF-kappaB signalling in C14-TriLAN-Gly-treated human THP-1 cells preincubated for 30 mins followed by C14-TriLAN-Gly addition measured after 24 hrs by luminescence based assay; format: cell-based
[4] = target: T2, Receptor-interacting serine/threonine-protein kinase 2; experiment: Inhibition of RIPK2-mediated NF-kappaB signalling in MDP-treated human THP-1 cells preincubated for 30 mins followed by MDP addition measured after 24 hrs by luminescence based assay; format: cell-based
[5] = target: T1, Receptor-interacting serine/threonine-protein kinase 3; experiment: Inhibition of N-terminal polyHis-tagged human RIPK3 (1 to 307 residues) expressed in Sf9 cells using MBP as substrate preincubated for 15 mins followed by ATP addition measured after 90 mins by ADP-Glo assay
Target sequence in this assay (Q9Y572 whole entry, the tested form may be a part): as the sequence (Q9Y572 whole entry, looked up, the tested form may be a part) above

[6] = target: T3, Receptor-interacting serine/threonine-protein kinase 1 (Homo sapiens, UniProt Q13546); experiment: Inhibition of N-terminal polyHis-tagged human RIPK1 (1 to 321 residues) expressed in Sf9 cells using MBP as substrate preincubated for 15 mins followed by ATP addition measured after 90 mins by ADP-Glo assay
T3 sequence (Q13546 whole entry): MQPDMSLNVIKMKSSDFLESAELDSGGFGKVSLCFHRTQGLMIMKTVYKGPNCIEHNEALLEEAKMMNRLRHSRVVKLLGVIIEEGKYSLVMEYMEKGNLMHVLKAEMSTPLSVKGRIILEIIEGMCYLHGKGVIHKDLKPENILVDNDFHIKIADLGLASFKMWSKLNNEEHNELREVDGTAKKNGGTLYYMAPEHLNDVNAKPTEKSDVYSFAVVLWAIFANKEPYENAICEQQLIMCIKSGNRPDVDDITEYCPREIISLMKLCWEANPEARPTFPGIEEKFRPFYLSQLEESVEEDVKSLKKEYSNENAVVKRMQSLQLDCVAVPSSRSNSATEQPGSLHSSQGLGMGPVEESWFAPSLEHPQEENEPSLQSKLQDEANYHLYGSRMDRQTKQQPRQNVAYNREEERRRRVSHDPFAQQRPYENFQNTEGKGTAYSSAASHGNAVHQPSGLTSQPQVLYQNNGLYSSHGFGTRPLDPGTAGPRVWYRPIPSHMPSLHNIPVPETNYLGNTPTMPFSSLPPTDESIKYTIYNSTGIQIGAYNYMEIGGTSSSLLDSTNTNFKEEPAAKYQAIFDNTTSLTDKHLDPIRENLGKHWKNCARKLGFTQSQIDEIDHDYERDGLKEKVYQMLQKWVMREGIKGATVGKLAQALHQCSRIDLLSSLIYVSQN

[7] = target: T4, Receptor-interacting serine/threonine-protein kinase 4 (Homo sapiens, UniProt P57078); experiment: Inhibition of N-terminal polyHis-tagged human RIPK4 (1 to 321 residues) expressed in Sf9 cells using MBP as substrate preincubated for 15 mins followed by ATP addition measured after 90 mins by ADP-Glo assay
T4 sequence (P57078 whole entry): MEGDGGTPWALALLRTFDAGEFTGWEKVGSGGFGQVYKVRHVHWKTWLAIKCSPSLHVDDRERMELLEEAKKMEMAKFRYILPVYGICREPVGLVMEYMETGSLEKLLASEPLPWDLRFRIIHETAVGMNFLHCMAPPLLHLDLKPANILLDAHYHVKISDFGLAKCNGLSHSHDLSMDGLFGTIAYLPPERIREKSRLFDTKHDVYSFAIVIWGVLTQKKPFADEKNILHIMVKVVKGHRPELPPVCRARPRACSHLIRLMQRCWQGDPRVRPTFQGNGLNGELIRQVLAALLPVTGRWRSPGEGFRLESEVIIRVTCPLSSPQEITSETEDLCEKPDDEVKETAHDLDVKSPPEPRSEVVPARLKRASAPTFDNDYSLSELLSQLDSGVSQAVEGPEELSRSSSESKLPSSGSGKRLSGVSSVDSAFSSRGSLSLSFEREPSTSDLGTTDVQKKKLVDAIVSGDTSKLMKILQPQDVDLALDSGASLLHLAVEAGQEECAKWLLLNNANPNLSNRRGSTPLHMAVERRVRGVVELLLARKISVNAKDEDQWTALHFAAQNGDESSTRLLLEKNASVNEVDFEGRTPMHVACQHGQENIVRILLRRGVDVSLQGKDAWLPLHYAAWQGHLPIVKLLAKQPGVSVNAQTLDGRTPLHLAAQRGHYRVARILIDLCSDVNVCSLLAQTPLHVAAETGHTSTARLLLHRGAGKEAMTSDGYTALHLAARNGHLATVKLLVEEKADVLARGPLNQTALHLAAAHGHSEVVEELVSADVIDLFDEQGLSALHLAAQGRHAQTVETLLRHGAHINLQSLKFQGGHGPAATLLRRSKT

SMILES	inhibition [1]	IC50 [2] [nM]	IC50 [3] [nM]	IC50 [4] [nM]	IC50 [5] [nM]	IC50 [6] [nM]	IC50 [7] [nM]
CC(C)(C)S(=O)(=O)c1cc2c(Nc3ccc4scnc4c3)ncnc2cc1OCCOP(=O)(O)O	inactive	4	92	38	–	–	–
Cn1cc(-c2ccc3ncnc(Nc4ccc5scnc5c4)c3c2)cn1	–	4	47	38	1500	> 50000	> 50000
Cn1nccc1-c1cc2c(Nc3ccc4scnc4c3)ncnc2cc1Cl	–	18	313	318	1600	> 50000	> 50000
Cc1ncc(-c2cc3c(Nc4ccc5scnc5c4)ncnc3cc2Cl)s1	inactive	5	156	103	–	> 50000	> 50000
Cc1ncc(-c2cc3c(Nc4ccc5scnc5c4)ncnc3cc2Cl)n1C	inactive	10	189	96	–	> 50000	> 50000
Cc1ccsc1-c1ccc2ncnc(Nc3ccc4scnc4c3)c2c1	–	6	438	362	388	> 50000	> 50000
c1nc(Nc2ccc3scnc3c2)c2cc(-c3cc[nH]n3)ccc2n1	–	6	114	68	2100	> 50000	> 50000
Cn1cccc1-c1ccc2ncnc(Nc3ccc4scnc4c3)c2c1	–	22	726	523	2900	> 50000	> 50000
Cc1cscc1-c1ccc2ncnc(Nc3ccc4scnc4c3)c2c1	–	29	4430	1530	1900	> 50000	> 50000
c1ccc(-c2ccc3ncnc(Nc4ccc5scnc5c4)c3c2)cc1	–	18	4360	2130	3600	> 50000	> 50000
Cc1ncc(-c2ccc3ncnc(Nc4ccc5scnc5c4)c3c2)s1	–	4	136	108	6000	> 50000	> 50000
Cn1nc(C(F)(F)F)cc1-c1cc2c(Nc3ccc4scnc4c3)ncnc2cc1Cl	–	324	4570	3360	2600	> 50000	> 50000
Cn1cnc(-c2cc3c(Nc4ccc5scnc5c4)ncnc3cc2Cl)c1	inactive	10	208	140	–	> 50000	> 50000
CC(C)S(=O)(=O)c1ccc2nccc(Nc3ccc4scnc4c3)c2c1	–	2	9	4	–	–	–
Cn1cnc(-c2ccc3ncnc(Nc4ccc5scnc5c4)c3c2)c1	inactive	11	209	95	–	> 50000	> 50000
Cn1cc(-c2cc3c(Nc4ccc5scnc5c4)ncnc3cc2Cl)cn1	inactive	4	67	63	–	> 50000	> 50000
Cc1ncc(-c2ccc3ncnc(Nc4ccc5scnc5c4)c3c2)n1C	inactive	9	143	240	–	> 50000	> 50000
OCc1cccc(-c2cc3ncnc(Nc4ccc5scnc5c4)c3cc2-c2cccs2)c1	–	5	432	396	551	> 50000	> 50000
Cn1ccnc1-c1ccc2ncnc(Nc3ccc4scnc4c3)c2c1	inactive	12	239	273	–	> 50000	> 50000
